The values that follow come from patent US20080171117A1, “METHODS FOR REDUCING MICROBIAL CONTAMINATION IN SEAFOOD PROCESSING” (Tasker Products Corp., priority 2004, published 2008).

For assay [1], the system named is SPC. As to the kind of experiment: Treated salmon under refrigeration: SPC. Conditions: Treated With O3.
The subject of assay [2] is Coliform. As to the kind of experiment: Treated salmon under refrigeration: Coliform. Conditions: Treated With O3.

Structures are written as SMILES.

On to `O=[O+][O-]` [O3, Ozone], for which the “Log SPC” value is recorded as 0 in assay [1] (day 3); 0 in assay [1] (day 6); 1.643 in assay [1] (day 8); 0 in assay [1] (day 9); 1.146 in assay [1] (day 10). Further, the SPC is 1 in assay [1] (day 3); 1 in assay [1] (day 6); 44 in assay [1] (day 8); 1 in assay [1] (day 9); 14 in assay [1] (day 10). The Coliform in assay [2] (day 3), in assay [2] (day 6), in assay [2] (day 8), in assay [2] (day 9) and in assay [2] (day 10) was 0.5 throughout.
